Data: ChEMBL document CHEMBL2385028, “Augmentation of GABAergic neurotransmission by novel N-(substituted)-2-[4-(substituted)benzylidene]hydrazinecarbothioamides-a potential anticonvulsant approach” (Eur J Med Chem, 2013)
Active and inactive are the calls of the source. No cut-off for these calls is given here.

Tests used:
physchem = settings: octanol/phosphate buffer
Description: Octanol-phosphate buffer partition coefficient, log P of the compound after 24 hrs by UV spectroscopic analysis

Mus musculus [1] = experiment: Anticonvulsant activity in albino CF-1 mouse assessed as protection against 6 Hz psychomotor seizure at 100 mg/kg, ip after 0.5 hrs by minimal clonic seizure test relative to control; assay type: functional; settings: route intraperitoneal
Mus musculus [2] = experiment: Anticonvulsant activity in albino CF-1 mouse assessed as protection against 6 Hz psychomotor seizure at 100 mg/kg, ip after […] by minimal clonic seizure test relative to control
Description: Anticonvulsant activity in albino CF-1 mouse assessed as protection against 6 Hz psychomotor seizure at 100 mg/kg, ip after 0.25 hrs by minimal clonic seizure test relative to control

Mus musculus [3] = experiment: Anticonvulsant activity in albino CF-1 mouse assessed as protection against subcutaneous metrazole-induced seizures in half or more animals at 300 mg/kg, ip after 4 hrs; assay type: functional, organism-based; design: dose 300 mg/kg
Mus musculus [4] = experiment: Anticonvulsant activity in albino CF-1 mouse assessed as protection against subcutaneous metrazole-induced seizures in half or more animals at 300 mg/kg, ip after 0.5 hrs; assay type: functional, organism-based; design: dose 300 mg/kg
Mus musculus [5] = experiment: Anticonvulsant activity in ip dosed albino CF-1 mouse assessed as protection against maximal electroshock-induced seizures in half or more animals after 4 hrs; assay type: functional; settings: albino CF-1, ip, read-out: MED
Mus musculus [6] = experiment: Anticonvulsant activity in ip dosed albino CF-1 mouse assessed as protection against maximal electroshock-induced seizures in half or more animals after 0.5 hrs; assay type: functional; settings: albino CF-1, ip, read-out: MED
Mus musculus [7] = experiment: Anticonvulsant activity in ip dosed albino CF-1 mouse assessed as protection against maximal electroshock-induced seizures in half or more animals after 2 hrs; assay type: functional; settings: albino CF-1, ip, read-out: MED
Mus musculus [8] = experiment: Anticonvulsant activity in albino CF-1 mouse assessed as protection against 6 Hz psychomotor seizure at 100 mg/kg, ip after 2 hrs by minimal clonic seizure test relative to control; assay type: functional; settings: route intraperitoneal
[9] = Inhibition of voltage-dependent calcium channel subunit alpha-2/delta gabapentin binding site (unknown origin); design: species or system Homo sapiens
Mus musculus [10] = experiment: Anticonvulsant activity in ip dosed albino CF-1 mouse assessed as protection against subcutaneous metrazole-induced seizures in half or more animals after 0.5 hrs; assay type: functional; settings: albino CF-1, 0.5 h, read-out: MED
Mus musculus [11] = experiment: Anticonvulsant activity in albino CF-1 mouse at 300 mg/kg, ip assessed as protection against maximal electroshock-induced seizures in half or more animals after 4 hrs; assay type: functional, organism-based; design: dose 300 mg/kg
Mus musculus [12] = experiment: Anticonvulsant activity in albino CF-1 mouse at 300 mg/kg, ip assessed as protection against maximal electroshock-induced seizures in half or more animals after 2 hrs; assay type: functional, organism-based; design: dose 300 mg/kg
Mus musculus [13] = experiment: Anticonvulsant activity in albino CF-1 mouse at 300 mg/kg, ip assessed as protection against maximal electroshock-induced seizures in half or more animals after 0.5 hrs; assay type: functional, organism-based; design: dose 300 mg/kg
Mus musculus [14] = experiment: Anticonvulsant activity in albino CF-1 mouse assessed as protection against 6 Hz psychomotor seizure at 100 mg/kg, ip after 1 hr by minimal clonic seizure test relative to control; assay type: functional; settings: route intraperitoneal
Mus musculus [15] = experiment: Anticonvulsant activity in albino CF-1 mouse assessed as protection against 6 Hz psychomotor seizure at 100 mg/kg, ip after 4 hrs by minimal clonic seizure test; assay type: functional; settings: route intraperitoneal
Rattus norvegicus [16] = experiment: Effect on GABA levels in Wistar rat olfactory lobe at 30 mg/kg, ip after 2 hrs measured per 100 mg tissue; assay type: functional; settings: route intraperitoneal
Rattus norvegicus [17] = experiment: Effect on GABA levels in Wistar rat midbrain at 30 mg/kg, ip after 2 hrs measured per 100 mg tissue; assay type: functional; settings: route intraperitoneal
[18] = Neuroprotective activity in hippocampal slices (unknown origin) assessed as protection against kainic acid-induced cell death by propidium-iodide staining-based fluorescence assay; assay type: functional, tissue-based; settings: Hippocampus
[19] = Neuroprotective activity in hippocampal slices (unknown origin) assessed as protection against NMDA-induced cell death by propidium-iodide staining-based fluorescence assay; assay type: functional, tissue-based; settings: Hippocampus
Rattus norvegicus [20] = experiment: Anticonvulsant activity in albino Sprague-Dawley rat assessed as protection against pilocarpine-induced status epilepticus at 600 mg/kg, ip administered prior to pilocarpine-challenge; assay type: functional, organism-based; design: dose 600 mg/kg
Rattus norvegicus [21] = experiment: Neurotoxicity in albino Sprague-Dawley rat assessed as motor impairment up to 600 mg/kg, ip measured for 4 hrs; assay type: toxicity, organism-based; design: dose 600 mg/kg, route intraperitoneal; settings: in vivo
Mus musculus [22] = experiment: Anticonvulsant activity in albino CF-1 mouse at 100 mg/kg, ip assessed as protection against maximal electroshock-induced seizures in half or more animals after 4 hrs relative to control; assay type: functional; settings: route intraperitoneal
Mus musculus [23] = experiment: Anticonvulsant activity in ip dosed albino CF-1 mouse assessed as protection against 6 Hz psychomotor seizure after 4 hrs by minimal clonic seizure test; assay type: functional; settings: albino CF-1, ip
Rattus norvegicus [24] = experiment: Effect on GABA levels in Wistar rat medulla oblongata at 30 mg/kg, ip after 2 hrs measured per 100 mg tissue; assay type: functional; settings: route intraperitoneal
Rattus norvegicus [25] = experiment: Effect on GABA levels in Wistar rat cerebellum at 30 mg/kg, ip after 2 hrs measured per 100 mg tissue; assay type: functional; settings: route intraperitoneal
Mus musculus [26] = experiment: Anticonvulsant activity in albino CF-1 mouse at 300 mg/kg, ip assessed as protection against maximal electroshock-induced seizures in half or more animals after 4 hrs relative to control; assay type: functional; settings: route intraperitoneal

Structure (SMILES): S=C(N/N=C/c1ccc(Oc2ccc3ccccc3c2)cc1)NC1CCCCC1
- logP at 24 h (physchem): 6.79

Structure (SMILES): Cc1ccc(NC(=S)N/N=C/c2ccc(Oc3ccccc3)cc2)cc1
- Activity (Mus musculus [1]): 50%
- logP at 24 h (physchem): 5.28
- Activity (Mus musculus [2]): inactive

Structure (SMILES): Cc1ccc(NC(=S)N/N=C/c2ccc(Oc3ccc4ccccc4c3)cc2)cc1
- logP at 24 h (physchem): 6.56

Structure (SMILES): Cc1ccc(NC(=S)N/N=C/c2ccc(Oc3ccc(F)cc3)cc2)cc1
- logP at 24 h (physchem): 5.48

Structure (SMILES): COc1ccc(NC(=S)N/N=C/c2ccc(Oc3ccc4ccccc4c3)cc2)cc1
- logP at 24 h (physchem): 6.11

Structure (SMILES): Cc1ccc(NC(=S)N/N=C/c2ccc(Oc3ccc4c(c3)OCO4)cc2)cc1
- logP at 24 h (physchem): 5.34

Structure (SMILES): O=[N+]([O-])c1ccc(Oc2ccc(/C=N/NC(=S)Nc3ccccc3)cc2)cc1
- logP at 24 h (physchem): 4.95

Structure (SMILES): COc1ccc(NC(=S)N/N=C/c2ccc(Oc3ccc(Cl)cc3)cc2)cc1
- logP at 24 h (physchem): 5.68

Structure (SMILES): Cc1ccc(NC(=S)N/N=C/c2ccc(Oc3ccc([N+](=O)[O-])cc3)cc2)cc1
- logP at 24 h (physchem): 5.23

Structure (SMILES): S=C(N/N=C/c1ccc(Oc2ccc3ccccc3c2)cc1)Nc1ccccc1
- logP at 24 h (physchem): 6.07

Structure (SMILES): S=C(N/N=C/c1ccc(Oc2ccccc2)cc1)NC1CCCCC1
- logP at 24 h (physchem): 5.7

Structure (SMILES): Cc1ccc(NC(=S)N/N=C/c2ccc(Oc3ccc(C)cc3)cc2)cc1
- logP at 24 h (physchem): 5.84

Structure (SMILES): Cc1ccc(NC(=S)N/N=C/c2ccc(Oc3ccc(Br)cc3)cc2)cc1
- logP at 24 h (physchem): 6.23

Structure (SMILES): Cc1ccc(Oc2ccc(/C=N/NC(=S)Nc3ccccc3)cc2)cc1
- logP at 24 h (physchem): 5.39

Structure (SMILES): O=C1NC(=O)C(c2ccccc2)(c2ccccc2)N1 [PHENYTOIN]
- Activity (Mus musculus [3]): inactive
- Activity (Mus musculus [4]): inactive
- minimal effective dose (Mus musculus [5]): 30 mg/kg
- minimal effective dose (Mus musculus [6]): 30 mg/kg
- minimal effective dose (Mus musculus [7]): 30 mg/kg

Structure (SMILES): Fc1ccc(Oc2ccc(/C=N/NC(=S)Nc3ccccc3)cc2)cc1
- logP at 24 h (physchem): 5.09
- Activity (Mus musculus [2]): inactive

Structure (SMILES): COc1ccc(NC(=S)N/N=C/c2ccc(Oc3ccc(Br)cc3)cc2)cc1
- logP at 24 h (physchem): 5.84

Structure (SMILES): Cc1ccc(NC(=S)N/N=C/c2ccc(Oc3ccc(Cl)cc3)cc2)cc1
- logP at 24 h (physchem): 6.71

Structure (SMILES): Fc1ccc(Oc2ccc(/C=N/NC(=S)NC3CCCCC3)cc2)cc1
- Activity (Mus musculus [8]): 50%
- logP at 24 h (physchem): 5.82
- Activity (Mus musculus [2]): inactive

Structure (SMILES): S=C(N/N=C/c1ccc(Oc2ccccc2)cc1)Nc1ccccc1
- logP at 24 h (physchem): 4.9

Structure (SMILES): Cc1ccc(Oc2ccc(/C=N/NC(=S)NC3CCCCC3)cc2)cc1
- logP at 24 h (physchem): 6.17

Structure (SMILES): COc1ccc(NC(=S)N/N=C/c2ccc(Oc3ccc4c(c3)OCO4)cc2)cc1
- logP at 24 h (physchem): 4.9

Structure (SMILES): O=[N+]([O-])c1ccc(Oc2ccc(/C=N/NC(=S)NC3CCCCC3)cc2)cc1
- logP at 24 h (physchem): 5.51

Structure (SMILES): O=C(O)[C@H]1CNCC12CCCCC2
- IC50 [9]: 120 nM

Structure (SMILES): CCCC(CCC)C(=O)[O-].[Na+] [VALPROATE SODIUM]
- minimal effective dose (Mus musculus [10]): 300 mg/kg
- Activity (Mus musculus [3]): inactive
- Activity (Mus musculus [11]): inactive
- Activity (Mus musculus [12]): inactive
- Activity (Mus musculus [13]): inactive

Structure (SMILES): S=C(N/N=C/c1ccc(Oc2ccc(Br)cc2)cc1)NC1CCCCC1
- logP at 24 h (physchem): 6.36
- Activity (Mus musculus [2]): inactive

Structure (SMILES): Cc1cc(Oc2ccc(/C=N/NC(=S)NC3CCCCC3)cc2)ccc1Cl
- Activity (Mus musculus [14]): 75%
- logP at 24 h (physchem): 6.76
- Activity (Mus musculus [2]): inactive

Structure (SMILES): COc1ccc(NC(=S)N/N=C/c2ccc(Oc3ccc(F)cc3)cc2)cc1
- Activity (Mus musculus [15]): 25%
- logP at 24 h (physchem): 5.09
- Activity (Mus musculus [2]): inactive

Structure (SMILES): S=C(N/N=C/c1ccc(Oc2ccc(Cl)cc2)cc1)NC1CCCCC1
- Activity (Rattus norvegicus [16]): 14.81 mg
- Activity (Rattus norvegicus [17]): 51.76 mg
- Activity [18]: inactive
- Activity [19]: inactive
- Activity (Rattus norvegicus [20]): inactive
- Activity (Rattus norvegicus [21]): Non-toxic
- Activity (Mus musculus [14]): 75%
- Activity (Mus musculus [1]): 75%
- Activity (Mus musculus [3]): inactive
- Activity (Mus musculus [4]): inactive
- Activity (Mus musculus [12]): inactive
- Activity (Mus musculus [13]): inactive
- minimal effective dose (Mus musculus [5]): 100 mg/kg
- Activity (Mus musculus [22]): 100%
- ED50 (Mus musculus [23]): > 100 mg/kg
- Activity (Rattus norvegicus [24]): 47.24 mg
- Activity (Rattus norvegicus [25]): 24.43 mg
- logP at 24 h (physchem): 6.44
- Activity (Mus musculus [2]): inactive

Structure (SMILES): COc1ccc(NC(=S)N/N=C/c2ccc(Oc3ccccc3)cc2)cc1
- Activity [18]: inactive
- Activity [19]: inactive
- Activity (Rattus norvegicus [20]): inactive
- Activity (Rattus norvegicus [21]): Non-toxic
- Activity (Mus musculus [14]): 75%
- Activity (Mus musculus [1]): 50%
- logP at 24 h (physchem): 4.99

Structure (SMILES): Cc1cc(Oc2ccc(/C=N/NC(=S)Nc3ccccc3)cc2)ccc1Cl
- logP at 24 h (physchem): 6.03
- Activity (Mus musculus [2]): inactive

Structure (SMILES): S=C(N/N=C/c1ccc(Oc2ccc3c(c2)OCO3)cc1)Nc1ccccc1
- logP at 24 h (physchem): 4.8

Structure (SMILES): S=C(N/N=C/c1ccc(Oc2ccc(Cl)cc2)cc1)Nc1ccccc1
- logP at 24 h (physchem): 5.52

Structure (SMILES): COc1ccc(NC(=S)N/N=C/c2ccc(Oc3ccc(C)cc3)cc2)cc1
- Activity (Rattus norvegicus [16]): 15.84 mg
- Activity (Rattus norvegicus [17]): 58.09 mg
- Activity [18]: inactive
- Activity [19]: inactive
- Activity (Rattus norvegicus [20]): inactive
- Activity (Rattus norvegicus [21]): Non-toxic
- Activity (Mus musculus [14]): 100%
- Activity (Mus musculus [8]): 50%
- Activity (Mus musculus [3]): inactive
- Activity (Mus musculus [4]): inactive
- Activity (Mus musculus [12]): inactive
- Activity (Mus musculus [13]): inactive
- minimal effective dose (Mus musculus [5]): 300 mg/kg
- Activity (Mus musculus [26]): 100%
- ED50 (Mus musculus [23]): > 100 mg/kg
- Activity (Rattus norvegicus [24]): 50.08 mg
- Activity (Rattus norvegicus [25]): 27.02 mg
- logP at 24 h (physchem): 5.44

Structure (SMILES): COc1ccc(NC(=S)N/N=C/c2ccc(Oc3ccc([N+](=O)[O-])cc3)cc2)cc1
- logP at 24 h (physchem): 4.9

Structure (SMILES): COc1ccc(NC(=S)N/N=C/c2ccc(Oc3ccc(Cl)c(C)c3)cc2)cc1
- logP at 24 h (physchem): 6.03
- Activity (Mus musculus [2]): inactive

Structure (SMILES): S=C(N/N=C/c1ccc(Oc2ccc(Br)cc2)cc1)Nc1ccccc1
- logP at 24 h (physchem): 5.62
- Activity (Mus musculus [2]): inactive

Structure (SMILES): S=C(N/N=C/c1ccc(Oc2ccc3c(c2)OCO3)cc1)NC1CCCCC1
- logP at 24 h (physchem): 5.56
